# What was measured:
# Format in all cases: cell-based, human
# SKpac-17 cells = test: Spheroid-forming assay (miR-150); conditions: PTX alone-treatment
# Method: Spheroid-forming assays were performed to verify the effect of miR-150 on cancer stem cell activation. SKpac-17 cells were transfected with pre miR-150 or pre miR-negative. Cells were plated in Ultra-Low-Attachment Surface 6-well culture plates (Corning, Action, MA, USA) in serum-free DEME/F12 medium (Gibco/Life Technologies, Grand Island, N.Y., USA) supplemented with 20 ng/ml epidermal growth factor (Gibco, Carlsbad, Calif., USA), 10 ng/ml basic fibroblast growth factor (Sigma-Aldrich, St. Louis, Mo., USA), 0.4% bovine serum albumin (Sigma-Aldrich, St. Louis, Mo., USA), and 5 μg/mL insulin (Sigma-Aldrich, St. Louis, Mo., USA) at a density of 1000 cells/cm^2. Spheroid formation (of 50 to 100 cells per spheroid) was assessed 7 days after seeding.
# In order to verify the effect of miR-150 transfection on cancer stem cells (CSCs) activation, a spheroid-forming assay was performed on paclitaxel-resistant SKpac cells in this Example, and alteration of mRNA of the stemness genes was detected using real-time RT-PCR.
# HUVECs = test: Angiogenesis (tube formation) assay (miR-150)
# Method: Matrigel (BD Biosciences, California, USA) was placed into flat-bottom, 96-well plate and polymerized for 1 hour at 37° C. HUVECs incubated in M199 containing 1% FBS were harvested after trypsin treatment, resuspended in M199, plated onto the layer of Matrigel at a density of 1×10^4 cells/well, and the supernatant of SKpac-17 cells transfected by pre miR150 was added. After 24 hours, 48 hours, and 72 hours, tube formation was observed.
# Cell migration and angiogenesis are important factors that influence tumor progression and metastasis. In this Example, a wound healing assay and a tube formation assay were performed to examine the effect of pre miR-150 on cell migration and the effect on angiogenesis, respectively.
# [1] = system: SKpac cells (SKpac-12, SKpac-16, and SKpac-17); test: TUNEL assay for apoptosis (miR-150); conditions: 48 hours
# Method: TUNEL assays were performed after pre miR-150 transfection in SKpac-12 and SKpac-17. After 48 hours, apoptotic cells were analyzed using the In Situ Cell Death Detection kit (Roche, Mannheim, Germany). 2×10^7 cells were fixed with 75% ethanol for 2 hours at −20° C. The cells were washed twice with PBS and incubated with 0.1% Triton X-100 and 0.1% sodium citrate for 2 minutes on ice. After washing twice with PBS, the cells were incubated with a TUNEL-labelling mixture for 1 hour at 37° C. in the dark. The samples were washed twice with PBS and analyzed by fluorescence activated cell sorting (FACS) (Becton Dickinson, Franklin Lakes, N.J., USA).
# In addition, to determine the effect of miR-150 on apoptosis, the SKpac cells (SKpac-12, SKpac-16, and SKpac-17) were transfected with pre miR-150, and then a TUNEL assay was performed on the cells. […] Collectively, the pre miR-150 transfection by itself or increased a sensitivity of tumor cells with respect to PTX and thus decreased tumor cell proliferation and induced apoptosis in PTX-resistant ovarian cancer cells.
# SKpac cells = test: WST (CCK-8) cell viability assay (miR-136); conditions: PTX-alone treatment
# Method: In order to investigate the role of miR-136 in the anticancer agent-sensitivity and proliferation activity of PTX-resistant SKpac cells, cell survival rate, cell proliferation, and apoptosis analyses were performed on the SKpac cells transfected by miR-136 mimics. […] In addition, to confirm whether overexpression of miR-136 increases cell toxicity induced by PTX, degrees of apoptosis were evaluated using a TUNEL analysis. […] In collection of these experiment results, it may be known that the overexpression of miR-136, when used alone or in a combination with PTX, decreases cell viability and cell proliferation of anticancer agent-resistant ovarian cancer cells and increases apoptosis.
smiles,measurement,setting,value
"CC(=O)O[C@H]1C(=O)[C@@]2(C)[C@H]([C@H](OC(=O)c3ccccc3)[C@]3(O)C[C@H](OC(=O)[C@H](O)[C@@H](NC(=O)c4ccccc4)c4ccccc4)C(C)=C1C3(C)C)[C@]1(OC(C)=O)CO[C@@H]1C[C@@H]2O [PTX, paclitaxel]",spheroid formation,SKpac-17 cells,no changes
same,reduction effect (migration / tube formation),HUVECs,not observed
same,apoptosis of the comparison treatments,[1],3.5%
same,influence on the cell viability,SKpac cells,no influence

# Reference: patent publication US11639531B2, “Composition, kit, and method for diagnosis and treatment of taxane anticancer agent-resistant cancer” (SUNGKWANG MEDICAL FOUNDATION, priority 2018, dated 2023)
